This is an account of results in article PMC11364104, “Discovery of SARS-CoV-2 papain-like protease (PL^pro) inhibitors with efficacy in a murine infection model” (Science Advances, 2024).

≈ marks a conversion by molar mass, not a printed value. Where only a bound is given, the exact number is not on record here.

Series [1] addresses T1, human Nav1.5 sodium channel (Homo sapiens, UniProt Q14524).
T1 construct: assay run at Metrion Biosciences Ltd; host or cells: CHO
The experiment in a line: hNav1.5 automated patch clamp. The format is cell-based. To be noted: read-out: NaV IC50. The method, then: Hz, and hCav1.2 current was measured as the peak current at 0 mV. All studies were […]
Three vehicle periods each lasting 5 minutes were applied to establish a stable baseline.
This was followed by the addition of increasing concentrations of test compound, with each exposure lasting 5 minutes. Patch clamp data were analyzed using Analyzer Software 6.4.72. Current amplitudes were determined by averaging the last 4 currents under each test condition. The percentage inhibition of each compound was determined by taking the ratio of current amplitude measured in the presence of various concentrations of the test compound (ICompound) versus the vehicle control current (IVehicle): % Inhibition = [1-(I Compound/IVehicle)] * 100%. A dose-response curve was generated and fit to the Hill equation by the Sophion Analyzer software to determine an IC50 value for each compound. The minimum and the […]
CHO cells stably expressing the human Nav1.5 sodium channel (University of Pennsylvania, Philadelphia, PA, hNav1.5 clone #6) were cultured in Hams F12 + Glutamax media supplemented with 10% FBS and Geneticin (0.5 mg/mL) at 37°C and 5% CO2 and subcultured every 2-3 days in T175 flasks. […]
Ionic currents were evaluated in the whole-cell configuration using the Qube384 platform using QChip 384x plates. […]

Series [2] can be described thus: Thermodynamic solubility. The series is classed as physicochemical. As to conditions: pH 7.4, aqueous buffer, thermodynamic from solid.
Series [3] is described as follows: Monkey pharmacokinetics. The series is classed as in vivo. As to conditions: plasma, Male Cynomolgus Monkey, 1.0 mg/kg iv, solution, mean n=2. As to the method: from Vital River (Beijing, China) and were typically 7-9 weeks of age at the time of dosing.
During the pharmacokinetic studies all animals were housed individually. Access to food and water was provided ad libitum (i.e., subjects were dosed in the fed state). In the instances where oral (po) dose was administered in the fed state, with ad libitum access to food and water. Compounds were administered intravenously (iv) via the tail vein (n = 2) dosed as a solution (1 mg/kg, 3 ml/kg) or via oral gavage as a solution (10 mg/kg, 10 ml/kg). Dosing solutions were prepared immediately before dosing. The composition of each dosing vehicle […]
Serial blood samples were collected via the jugular vein cannula at predetermined timepoints after dosing. Animals were monitored for pain or distress throughout the study, with at least daily monitoring during normal husbandry prior to study start. At the completion of the study, animals were euthanized by overdose of inhaled carbon dioxide. Blood samples were collected into tubes containing K2EDTA and stored on ice until centrifugation to obtain plasma, which was stored frozen at - 20 °C or lower.
Dog pharmacokinetic studies were done at Pfizer (Groton, CT). All procedures performed on beagle dogs were in accordance with regulations and established guidelines and were reviewed and approved by an Institutional Animal Care and Use Committee through an ethical review process. Male Beagle dogs were purchased from Marshall Bioresources (North Rose, NY); subjects 3 years of age were used in pharmacokinetics studies. For each study (n=2), compounds were dosed iv by cephalic vein as a solution (0.5 mg/kg, 1 mL/kg) or via oral gavage as a suspension (3 mg/kg, 5 mL/kg). In the instances where oral (po) dose was administered in the fed state, dogs were fed a couple hours before dosing. In the instances where the IV dose was administered in the fasted state, dogs were fasted over night and fed 4 hours post dose. Subjects were monitored for pain or distress throughout the study followed by at least daily monitoring while off study. The iv dosing vehicle was optimized such that the compounds were in solution and stable for at least 24 h. Serial blood samples were collected via the jugular vein at predefined time points post-dose. […]
Monkey pharmacokinetic studies were conducted at Pfizer (Groton, CT). […] Subjects were monitored for pain or distress throughout the study followed by at least daily monitoring while off study. […]
Plasma samples were processed using protein precipitation with 50:50 acetonitrile: methanol containing terfenadine (5 ng/ml) as an internal standard followed by quantitation against a standard curve (0.1-1000 ng/ml) prepared in blank plasma. Quantitation of analyte in plasma samples was done using LC-MS/MS. […]

Series [4] deals with hCoV-229E_PLpro2 (Human coronavirus 229E, UniProt P0C6X1). The experiment in a line: biochemical. Also on record: species or system 229E-CoV.
Chain of hCoV-229E_PLpro2 (P0C6X1 1663-1914): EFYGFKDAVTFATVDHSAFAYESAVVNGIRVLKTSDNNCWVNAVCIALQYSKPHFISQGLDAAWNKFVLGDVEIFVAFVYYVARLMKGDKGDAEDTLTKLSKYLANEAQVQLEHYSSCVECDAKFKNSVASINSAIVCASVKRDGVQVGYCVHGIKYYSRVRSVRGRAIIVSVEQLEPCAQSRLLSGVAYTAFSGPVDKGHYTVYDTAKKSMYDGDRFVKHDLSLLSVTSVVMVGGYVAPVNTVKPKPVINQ
Series [5] concerns the target T2, P38 MAP Kinase (Homo sapiens, UniProt Q16539).
T2 construct: purchased Eurofins Cerep
The series can be described thus: CEREP kinase inhibition. The format is biochemical.

Series [6] deals with T3, Choline Transporter (Homo sapiens, UniProt Q9GZV3).
T3 construct: purchased Eurofins Cerep
T3 sequence (Q9GZV3 whole entry): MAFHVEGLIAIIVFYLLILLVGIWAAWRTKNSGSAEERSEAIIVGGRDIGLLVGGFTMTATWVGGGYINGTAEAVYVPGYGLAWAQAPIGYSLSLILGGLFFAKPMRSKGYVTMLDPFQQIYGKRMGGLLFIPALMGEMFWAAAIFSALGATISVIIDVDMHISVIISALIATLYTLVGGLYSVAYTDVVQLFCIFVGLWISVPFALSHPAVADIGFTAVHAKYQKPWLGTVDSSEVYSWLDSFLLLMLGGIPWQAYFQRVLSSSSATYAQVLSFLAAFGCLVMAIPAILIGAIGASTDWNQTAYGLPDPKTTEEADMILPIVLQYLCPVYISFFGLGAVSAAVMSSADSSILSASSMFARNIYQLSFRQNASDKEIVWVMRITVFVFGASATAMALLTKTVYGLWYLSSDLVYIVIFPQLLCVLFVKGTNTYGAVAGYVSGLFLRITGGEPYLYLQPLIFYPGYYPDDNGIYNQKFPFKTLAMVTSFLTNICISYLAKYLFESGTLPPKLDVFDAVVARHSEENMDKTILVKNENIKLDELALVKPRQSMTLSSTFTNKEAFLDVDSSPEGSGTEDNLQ
The experiment in a line: CEREP transporters-binding.

Series [7] deals with Nicotinic Ach Receptor (Neuronal). The series can be described thus: CEREP ion channel-binding. As to conditions: 30 µM.
Series [8] has as its target CYP2D6 (Homo sapiens, UniProt P10635). The experiment in a line: biochemical.

T2 sequence (Q16539 whole entry): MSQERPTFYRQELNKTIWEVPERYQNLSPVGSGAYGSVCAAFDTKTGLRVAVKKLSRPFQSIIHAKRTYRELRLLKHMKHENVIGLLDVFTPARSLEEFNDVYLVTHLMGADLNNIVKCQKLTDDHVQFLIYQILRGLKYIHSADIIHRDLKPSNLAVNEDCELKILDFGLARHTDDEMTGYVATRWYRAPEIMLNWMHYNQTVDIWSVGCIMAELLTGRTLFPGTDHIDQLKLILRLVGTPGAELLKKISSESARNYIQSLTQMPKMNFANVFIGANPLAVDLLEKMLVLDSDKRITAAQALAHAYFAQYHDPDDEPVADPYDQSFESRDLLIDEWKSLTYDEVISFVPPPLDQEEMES
T1 sequence (Q14524 whole entry): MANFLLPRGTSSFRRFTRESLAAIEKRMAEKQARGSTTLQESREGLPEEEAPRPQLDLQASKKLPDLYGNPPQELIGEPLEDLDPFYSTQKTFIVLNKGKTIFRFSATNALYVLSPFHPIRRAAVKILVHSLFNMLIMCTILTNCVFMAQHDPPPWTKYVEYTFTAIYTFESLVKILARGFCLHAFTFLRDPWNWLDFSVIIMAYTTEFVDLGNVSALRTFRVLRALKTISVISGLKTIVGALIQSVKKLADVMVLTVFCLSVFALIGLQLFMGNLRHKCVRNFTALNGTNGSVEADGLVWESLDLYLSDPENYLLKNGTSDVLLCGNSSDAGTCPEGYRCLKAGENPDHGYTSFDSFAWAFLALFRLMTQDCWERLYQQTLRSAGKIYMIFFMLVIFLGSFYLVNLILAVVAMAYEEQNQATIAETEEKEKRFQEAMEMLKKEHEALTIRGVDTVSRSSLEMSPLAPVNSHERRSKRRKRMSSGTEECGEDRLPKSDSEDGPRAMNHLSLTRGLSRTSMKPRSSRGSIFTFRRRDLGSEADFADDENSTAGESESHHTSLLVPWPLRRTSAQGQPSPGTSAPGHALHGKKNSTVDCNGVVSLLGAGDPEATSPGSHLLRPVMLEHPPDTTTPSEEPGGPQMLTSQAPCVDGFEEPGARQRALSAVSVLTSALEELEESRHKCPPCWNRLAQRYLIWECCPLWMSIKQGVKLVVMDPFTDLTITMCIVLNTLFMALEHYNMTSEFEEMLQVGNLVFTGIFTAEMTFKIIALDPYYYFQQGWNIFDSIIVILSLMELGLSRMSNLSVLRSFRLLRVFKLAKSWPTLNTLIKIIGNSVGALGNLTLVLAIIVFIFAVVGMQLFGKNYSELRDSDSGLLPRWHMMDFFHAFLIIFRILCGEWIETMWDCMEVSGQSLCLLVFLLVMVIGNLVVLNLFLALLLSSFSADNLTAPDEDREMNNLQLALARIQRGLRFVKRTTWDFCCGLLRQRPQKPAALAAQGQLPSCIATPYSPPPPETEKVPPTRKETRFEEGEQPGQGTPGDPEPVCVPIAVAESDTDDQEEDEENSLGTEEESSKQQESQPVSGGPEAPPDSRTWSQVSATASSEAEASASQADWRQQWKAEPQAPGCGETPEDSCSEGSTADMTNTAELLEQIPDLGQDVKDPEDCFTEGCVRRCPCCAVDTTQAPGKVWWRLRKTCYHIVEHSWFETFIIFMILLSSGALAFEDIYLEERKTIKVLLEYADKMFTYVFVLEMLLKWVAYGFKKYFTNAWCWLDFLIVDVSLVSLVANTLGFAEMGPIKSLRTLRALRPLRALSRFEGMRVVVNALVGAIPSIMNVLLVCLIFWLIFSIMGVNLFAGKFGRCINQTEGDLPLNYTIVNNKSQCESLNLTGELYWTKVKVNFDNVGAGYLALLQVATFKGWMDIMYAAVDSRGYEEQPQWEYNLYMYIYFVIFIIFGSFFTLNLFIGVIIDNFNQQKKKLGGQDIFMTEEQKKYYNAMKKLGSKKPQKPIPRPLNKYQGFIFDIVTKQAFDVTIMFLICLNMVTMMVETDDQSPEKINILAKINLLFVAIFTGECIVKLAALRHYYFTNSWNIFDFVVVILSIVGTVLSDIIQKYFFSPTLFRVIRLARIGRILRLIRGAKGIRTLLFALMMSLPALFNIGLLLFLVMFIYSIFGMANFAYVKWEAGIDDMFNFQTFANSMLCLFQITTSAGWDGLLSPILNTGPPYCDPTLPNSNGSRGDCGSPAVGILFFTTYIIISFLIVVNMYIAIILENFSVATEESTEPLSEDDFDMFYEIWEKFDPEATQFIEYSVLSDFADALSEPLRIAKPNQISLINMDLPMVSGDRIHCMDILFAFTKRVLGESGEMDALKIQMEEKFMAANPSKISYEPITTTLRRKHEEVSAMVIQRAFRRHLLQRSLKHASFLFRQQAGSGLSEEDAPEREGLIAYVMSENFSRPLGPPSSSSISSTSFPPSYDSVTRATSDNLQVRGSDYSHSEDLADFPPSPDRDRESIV
Chain of CYP2D6 (P10635 whole entry): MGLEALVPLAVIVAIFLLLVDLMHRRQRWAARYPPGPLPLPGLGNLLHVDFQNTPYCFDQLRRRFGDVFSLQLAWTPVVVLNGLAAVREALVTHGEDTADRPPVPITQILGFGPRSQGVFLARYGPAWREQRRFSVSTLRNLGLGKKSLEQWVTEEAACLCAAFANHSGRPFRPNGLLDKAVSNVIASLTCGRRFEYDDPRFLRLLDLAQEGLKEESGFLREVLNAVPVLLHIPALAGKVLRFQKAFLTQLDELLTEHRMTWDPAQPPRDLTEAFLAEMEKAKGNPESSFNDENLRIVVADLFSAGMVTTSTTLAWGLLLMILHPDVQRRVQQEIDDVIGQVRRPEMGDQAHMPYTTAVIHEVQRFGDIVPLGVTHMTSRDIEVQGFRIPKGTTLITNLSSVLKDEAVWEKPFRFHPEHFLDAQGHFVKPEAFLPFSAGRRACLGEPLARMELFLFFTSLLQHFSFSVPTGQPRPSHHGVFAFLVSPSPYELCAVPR

As for `Cc1ccc(N2CCN(C)CC2)cc1C(=O)NC1(c2cc(-c3cnn(C)c3)nc3ccccc23)CC1` [Compound 4], the figures for the half-maximal inhibitory concentration (IC50) in series [1] and in series [8] were above 100 µM and above 30 µM, respectively. Besides, the solubility (thermodynamic) in series [2] was determined as 541 µM (≈ 260 µg/mL). In series [3], this compound yielded an AUC(0-inf) of 1600 ng·h/mL. The half-life in series [3] is 3.56 h. Moreover, the clearance in series [3] (read-out: CLp) was determined as 10.7 mL/min/kg. Also, the Vd in series [3] (read-out: Vdss) came out at 2.09 L/kg. Also, in series [4], the Ki is above 10 µM. The “activity on 229E PL^pro” value in series [4] is “nearly inactive”. Besides, the inhibition at 30 µM in series [5] was 10%; in series [6] it was 25%. The “% inhibition” value in series [7] was -6%.

As a reminder, the IC50 is the concentration that gives 50% inhibition. As a reminder, the thermodynamic solubility is solubility found after equilibrating the solid with the medium. By AUC(0-inf) is commonly meant the area under the concentration-time curve extrapolated to infinity. One may read the half-life as the time in which the quantity being followed falls by half. In general, Ki refers to a measure of affinity in units of concentration, obtained from inhibition or displacement. The term inhibition denotes the percentage by which the read-out fell short of the control. For orientation: % inhibition means the change of the read-out against control, counted positive when it falls.
